Tests used:
Type in all cases: cell-based
IL-2 [1] = assay: Inhibition of IL-2 release in PBMC; details: Homo sapiens, Concanavalin A + PMA, 20 h, read-out: IC 50 PBMC IL-2
Protocol: (§1) Inhibition of cytokine IL-2, IL-4, IL-5 and TNF α was determined as described below.
(§2) PBMC from freshly collected HWB were isolated by density gradient using Histopaque and seeded in a 96-well plate. Cells were incubated with desired concentrations of the inhibitor for 15 min. Cytokine release was induced by the addition of Concanavalin A (25 μg/ml)+Phorbol Myristate Acetate (50 ng/ml) for IL-2 & TNFα or with Phytohemagglutinin (5 μg/ml) for IL-4 & IL-5 and incubated at 37° C. in an atmosphere containing […]. Supernatant was collected after 20 h (IL-2 & TNFα) or 48 h (IL-4 & IL-5) for estimation of cytokines by ELISA. Data were analysed using GraphPad Prism. IC50 values for each compound were determined based on the percent inhibition due to the test compound compared to the control.

IL-4 [2] = assay: Inhibition of IL-4 release in human whole blood; details: Phytohemagglutinin, 48 h, read-out: IC 50 Human Whole Blood IL-4
Protocol: as §1
as §2, with “Freshly” for “PBMC from freshly”, “was diluted with RPMI medium (1:4.5)” for “were isolated by density gradient using Histopaque”, “added to” for “seeded in”, “Wells” for “Cells”

IL-5 [3] = assay: Inhibition of IL-5 release in PBMC; details: Homo sapiens, Phytohemagglutinin, 48 h, read-out: IC 50 PBMC IL-5
Protocol: as §1, §2

IL-5 [4] = assay: Inhibition of IL-5 release in human whole blood; details: Phytohemagglutinin, 48 h, read-out: IC 50 Human Whole Blood IL-5
Protocol: as §1
as §2, with “Freshly” for “PBMC from freshly”, “was diluted with RPMI medium (1:4.5)” for “were isolated by density gradient using Histopaque”, “added to” for “seeded in”, “Wells” for “Cells”

IL-2 [5] = assay: Inhibition of IL-2 release in human whole blood; details: Concanavalin A + PMA, 20 h, read-out: IC 50 Human Whole Blood IL-2
Protocol: as §1
as §2, with “Freshly” for “PBMC from freshly”, “was diluted with RPMI medium (1:4.5)” for “were isolated by density gradient using Histopaque”, “added to” for “seeded in”, “Wells” for “Cells”

IL-4 [6] = assay: Inhibition of IL-4 release in PBMC; details: Homo sapiens, Phytohemagglutinin, 48 h, read-out: IC 50 PBMC IL-4
Protocol: as §1, §2

TNFα [7] = assay: Inhibition of TNFα release in human whole blood; details: Concanavalin A + PMA, 20 h, read-out: IC 50 Human Whole Blood TNFα
Protocol: as §1
as §2, with “Freshly” for “PBMC from freshly”, “was diluted with RPMI medium (1:4.5)” for “were isolated by density gradient using Histopaque”, “added to” for “seeded in”, “Wells” for “Cells”

TNFα [8] = assay: Inhibition of TNFα release in PBMC; details: Homo sapiens, Concanavalin A + PMA, 20 h, read-out: IC 50 PBMC TNFα
Protocol: as §1, §2

CRAC channels = CRAC channels (Homo sapiens (Human), UniProt Q96D31); assay: In-vitro CRAC channel inhibition assay in Jurkat cells (thapsigargin-induced calcium influx)
Sequence of CRAC channels (Q96D31 whole entry): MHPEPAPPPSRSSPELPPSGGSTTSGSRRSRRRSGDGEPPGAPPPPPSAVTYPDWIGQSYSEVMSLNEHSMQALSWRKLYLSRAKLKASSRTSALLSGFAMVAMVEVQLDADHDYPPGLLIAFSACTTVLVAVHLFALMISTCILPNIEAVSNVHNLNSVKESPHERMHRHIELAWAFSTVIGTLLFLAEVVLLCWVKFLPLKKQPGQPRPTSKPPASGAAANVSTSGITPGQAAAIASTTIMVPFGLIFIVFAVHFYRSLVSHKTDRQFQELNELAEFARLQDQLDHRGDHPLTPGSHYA
Protocol: Inhibition of CRAC channels was determined following thapsigargin (Sigma, Cat # T9033) induced endoplasmic calcium release in Jurkat cells. (see Yasurio Yonetoky et. al Bio. & Med. Chem. 14 (2006) 4750-4760). Cells were centrifuged and resuspended in equal volumes ° f Ca^2+ and Mg^2+ free Hanks buffer and Fluo-8 NW dye (ABD Bioquest, Inc., Sunnyvale, Calif.) loading solution at 2×10^5 cells/100 μl/well in 96-well black plate. Plate is incubated at 37° C./5% CO2 for 30 mM followed by further 15 mM incubation at room temperature. Test compounds (DMSO stocks diluted in Ca^2+ and Mg^2+ free Hanks buffer) at desired concentrations were added to the wells and incubated for […]. Thapsigargin (1 μM final concentration) was added to the wells and incubated for 15 min to inhibit the Sarco-endoplasmic reticulum Ca^2+ ATPase pump thereby depleting endoplasmic calcium and raising cytosolic calcium concentrations. Store-operated calcium entry was initiated by adding extracellular Ca^2+ to a final concentration of 1.8 mM. Fluorescence was monitored over […] on a plate reader (BMG Labtech., Germany) with excitation at 485 nm and an emission wavelength at 520 nm. Data were analyzed using GraphPad Prism. IC50 for each compound was determined based on the percent inhibition of thapsigargin-induced calcium influx into cells.

IC50 (IL-2 [1]): 383 nM
IC50 (IL-4 [2]): 1230 nM
IC50 (IL-5 [3]): 149 nM
IC50 (IL-5 [4]): 164 nM
IC50 (IL-2 [5]): 40.7 nM
IC50 (IL-4 [6]): 540 nM
IC50 (TNFα [7]): 35.6 nM
IC50 (TNFα [8]): 138 nM
IC50 (CRAC channels): 39.2 nM
inhibition at 1 µM (CRAC channels; 1 uM): 100%
Compound: O=C(Cn1nnc2ccccc21)Nc1ccc(-n2nc(C(F)(F)F)cc2C2CC2)cc1 [Example 20, 2-(1H-benzo[d][1,2,3]triazol-1-yl)-N-{4-[5-cyclopropyl-3-(trifluoromethyl)-1H-pyrazol-1-yl]phenyl}acetamide]
